ChEMBL document CHEMBL3885881, “DrugMatrix”

Organism: Rattus norvegicus
Assay: DrugMatrix - Regimen: Daily Repeat
Assay type: toxicity, organism-based, Sprague-Dawley
Set-up: regimen Daily Repeat, gender Male, age 6-8 weeks
Settings: in vivo, po, 0 mg/kg, route oral GAVAGE, dose level Control, […]; for ABSOLUTE BASOPHIL / ABSOLUTE EOSINOPHIL / ABSOLUTE LYMPHOCYTE / ABSOLUTE MONOCYTE / ABSOLUTE SEGMENTED NEUTROPHIL / BASOPHIL / EOSINOPHIL / ERYTHROCYTE COUNT / HEMATOCRIT / HEMOGLOBIN / LEUKOCYTE COUNT / LYMPHOCYTE / MEAN CORPUSCULAR HEMOGLOBIN / MEAN CORPUSCULAR HEMOGLOBIN CONCENTRATION / MEAN CORPUSCULAR VOLUME / MONOCYTE / NEUTROPHIL / NUCLEATED RED BLOOD CELLS / PLATELET COUNT: tissue Blood; for ALANINE AMINOTRANSFERASE / ALBUMIN / ALKALINE PHOSPHATASE / ASPARTATE AMINOTRANSFERASE / BLOOD UREA NITROGEN / CARBON DIOXIDE / CHLORIDE / CHOLESTEROL / CREATINE PHOSPHOKINASE / CREATININE / GLUCOSE / LACTATE DEHYDROGENASE / LIPASE / PHOSPHORUS / POTASSIUM / SODIUM / TOTAL BILIRUBIN / TOTAL PROTEIN / URIC ACID: tissue Plasma

SMILES: C#C[C@]1(O)CC[C@H]2[C@@H]3CCc4cc(O)ccc4[C@H]3CC[C@@]21C [ETHINYL ESTRADIOL]
- ABSOLUTE BASOPHIL (72 h, time 3 day): 0 CELLS/uL
- ABSOLUTE EOSINOPHIL (72 h, time 3 day): 104.17 CELLS/uL
- ABSOLUTE LYMPHOCYTE (72 h, time 3 day): 14547 CELLS/uL
- ABSOLUTE MONOCYTE (72 h, time 3 day): 292 CELLS/uL
- ABSOLUTE SEGMENTED NEUTROPHIL (72 h, time 3 day): 1640.17 CELLS/uL
- BASOPHIL (72 h, time 3 day): 0%
- EOSINOPHIL (72 h, time 3 day): 0.67%
- ERYTHROCYTE COUNT (72 h, time 3 day): 5.35 x10E6/uL
- HEMATOCRIT (72 h, time 3 day): 33.67%
- HEMOGLOBIN (72 h, time 3 day): 13.38 G/DL
- LEUKOCYTE COUNT (72 h, time 3 day): 16.58 x10E3/uL
- LYMPHOCYTE (72 h, time 3 day): 87.5%
- MEAN CORPUSCULAR HEMOGLOBIN (72 h, time 3 day): 25.05 pg
- MEAN CORPUSCULAR HEMOGLOBIN CONCENTRATION (72 h, time 3 day): 39.78 G/DL
- MEAN CORPUSCULAR VOLUME (72 h, time 3 day): 62.97 fL
- MONOCYTE (72 h, time 3 day): 1.83%
- NEUTROPHIL (72 h, time 3 day): 10%
- NUCLEATED RED BLOOD CELLS (72 h, time 3 day): 0 /100WBC
- PLATELET COUNT (72 h, time 3 day): 1274.5 x10E3/uL
- ALANINE AMINOTRANSFERASE (72 h, time 3 day): 76.83 u/L
- ALBUMIN (72 h, time 3 day): 3.97 G/DL
- ALKALINE PHOSPHATASE (72 h, time 3 day): 347 u/L
- ASPARTATE AMINOTRANSFERASE (72 h, time 3 day): 97.17 u/L
- BLOOD UREA NITROGEN (72 h, time 3 day): 14.33 mg/dL
- CARBON DIOXIDE (72 h, time 3 day): 25.5 mmol/L
- CHLORIDE (72 h, time 3 day): 100.33 MEQ/L
- CHOLESTEROL (72 h, time 3 day): 68.67 mg/dL
- CREATINE PHOSPHOKINASE (72 h, time 3 day): 659.17 u/L
- CREATININE (72 h, time 3 day): 0.32 mg/dL
- GLUCOSE (72 h, time 3 day): 160.67 mg/dL
- LACTATE DEHYDROGENASE (72 h, time 3 day): 271.5 u/L
- LIPASE (72 h, time 3 day): 11.67 u/L
- PHOSPHORUS (72 h, time 3 day): 10.65 mg/dL
- POTASSIUM (72 h, time 3 day): 5.95 MEQ/L
- SODIUM (72 h, time 3 day): 139.65 MEQ/L
- TOTAL BILIRUBIN (72 h, time 3 day): 0.2 mg/dL
- TOTAL PROTEIN (72 h, time 3 day): 5.72 G/DL
- URIC ACID (72 h, time 3 day): 1.37 mg/dL
- ABSOLUTE BASOPHIL (120 h, time 5 day): 0 CELLS/uL
- ABSOLUTE EOSINOPHIL (120 h, time 5 day): 331.5 CELLS/uL
- ABSOLUTE LYMPHOCYTE (120 h, time 5 day): 15021.67 CELLS/uL
- ABSOLUTE MONOCYTE (120 h, time 5 day): 376.5 CELLS/uL
- ABSOLUTE SEGMENTED NEUTROPHIL (120 h, time 5 day): 3070.33 CELLS/uL
- BASOPHIL (120 h, time 5 day): 0%
- EOSINOPHIL (120 h, time 5 day): 1.83%
- ERYTHROCYTE COUNT (120 h, time 5 day): 5.24 x10E6/uL
- HEMATOCRIT (120 h, time 5 day): 33.22%
- HEMOGLOBIN (120 h, time 5 day): 13.2 G/DL
- LEUKOCYTE COUNT (120 h, time 5 day): 18.8 x10E3/uL
- LYMPHOCYTE (120 h, time 5 day): 79.67%
- MEAN CORPUSCULAR HEMOGLOBIN (120 h, time 5 day): 25.17 pg
- MEAN CORPUSCULAR HEMOGLOBIN CONCENTRATION (120 h, time 5 day): 39.73 G/DL
- MEAN CORPUSCULAR VOLUME (120 h, time 5 day): 63.38 fL
- MONOCYTE (120 h, time 5 day): 2%
- NEUTROPHIL (120 h, time 5 day): 16.5%
- NUCLEATED RED BLOOD CELLS (120 h, time 5 day): 0 /100WBC
- PLATELET COUNT (120 h, time 5 day): 1142.67 x10E3/uL
- ALANINE AMINOTRANSFERASE (120 h, time 5 day): 52.5 u/L
- ALBUMIN (120 h, time 5 day): 3.9 G/DL
- ALKALINE PHOSPHATASE (120 h, time 5 day): 284.5 u/L
- ASPARTATE AMINOTRANSFERASE (120 h, time 5 day): 81.33 u/L
- BLOOD UREA NITROGEN (120 h, time 5 day): 16 mg/dL
- CARBON DIOXIDE (120 h, time 5 day): 25.33 mmol/L
- CHLORIDE (120 h, time 5 day): 99.5 MEQ/L
- CHOLESTEROL (120 h, time 5 day): 74.83 mg/dL
- CREATINE PHOSPHOKINASE (120 h, time 5 day): 448.33 u/L
- CREATININE (120 h, time 5 day): 0.37 mg/dL
- GLUCOSE (120 h, time 5 day): 164.17 mg/dL
- LACTATE DEHYDROGENASE (120 h, time 5 day): 290.67 u/L
- LIPASE (120 h, time 5 day): 6.83 u/L
- PHOSPHORUS (120 h, time 5 day): 11.5 mg/dL
- POTASSIUM (120 h, time 5 day): 6.28 MEQ/L
- SODIUM (120 h, time 5 day): 139.5 MEQ/L
- TOTAL BILIRUBIN (120 h, time 5 day): 0.13 mg/dL
- TOTAL PROTEIN (120 h, time 5 day): 5.55 G/DL
- URIC ACID (120 h, time 5 day): 1.12 mg/dL
